Results from US7838234B2, “Methods for determining cancer resistance to histone deacetylase inhibitors” (Pharmacyclics, Inc., priority 2007, dated 2010).

Experiments:
[1] = system: HDACi-responsive biomarker genes; experiment: Taqman mRNA levels of HDACi-responsive biomarker genes in mouse tissues after dosing; type: in vivo; details: mice, 50 mg/kg, 3 and 8 hours after administration, 13 tissues
Procedure: RNA expression profiles were determined using on a GE-Codelink Mouse Unisetl 10K oligonucleotide arrays in duplicate. Each treated sample was normalized to the corresponding vehicle control. In order to validate the expression profile of HDADi-responsive genes identified by the gene expression array assays, Taqman gene expression assays were performed using Applied Biosystems Inc. assays. One-step RT-PCR was carried out in triplicate on 25 ng of total RNA from each sample on a ABI PRISM 7700 instrument. The mRNA levels for each gene were normalized to the amount of RNA in the well as measured in parallel using Ribogreen (Molecular Probes). The treated samples were then normalized to the vehicle control at that time point. We then determined the in vivo expression levels for five of the RDACi-responsive biomarker genes in various tissues following 3 hours or 8 hours following administration of PCI-24781 (50 mg/kg). A Taqman assay was performed to determine mRNA expression levels in brain, colon, kidney, liver, stomach, ovary, uterus, mammary, muscle, heart, lung, spleen, and pancreas. The issue distribution pattern was very reproducible across the biomarker set.

AML primary tumor cells = experiment: Soft agar tritiated thymidine assay of primary human tumor samples, EDR/IDR/LDR classification: AML; type: cell-based
Procedure: (§1) Subsequently, primary human tumor samples were obtained and viable tumor cells were plated in soft agar and treated with the HDAC inhibitor PCI-24781. Tritiated thymidine was added after 3 days, and 2 days later the radioactivity incorporated into the DNA was quantified. The tumors were then classified as either resistant (EDR: Extreme Drug Resistance), sensitive (LDR) or intermediate (IDR) based on deviation from the median profile (Oncotech, Inc. Tustin, Calif.). As predicted based on the HDACi responsive biomarker gene profiles hematopoietic tumors had the lowest proportion of resistant (EDR) tumors, and colon the most (38%). Among the solid tumors, ovarian had the lowest proportion of resistant tumors, consistent with the high HDACi-biomarker responsiveness of this tissue.

[2] = system: Glioblastoma primary tumor cells; experiment: Soft agar tritiated thymidine assay of primary human tumor samples, EDR/IDR/LDR classification: glioblastoma; type: cell-based
Procedure: as §1

[3] = system: acetylated tubulin in PBMC; experiment: Tubulin acetylation in peripheral blood mononuclear cells of treated mice (immunoblotting); type: in vivo, mouse; details: female BALB/c mice, 50 mg/kg IV, 0.25-8 hours after dosing
Procedure: In brief, female BALB/c mice were injected IV with 50 mg/kg PCI-24781 or vehicle. Blood and various tissues were collected at 0.25, 0.5, 1, 2, 3 & 8 hours after dosing. For acetylated histone and tubulin detection, organs/tissues were pooled for each vehicle and drug-treated organ group. RNA and protein were extracted from the samples with the PARIS Protein and RNA Isolation System (Ambion). Levels of acetylated and total α-tubulin & histones were evaluated by immunoblotting.

[4] = system: primary colorectal tumors (colon carcinoma biopsies); experiment: Soft agar chemosensitivity assay (tritiated thymidine incorporation) of primary colorectal tumors ex vivo; type: cell-based, human
Excerpt: The method used soft agar chemosensitivity assays in which primary human tumors were exposed in culture to PCI-24781. Either a trititated thymidine or alamar blue assay was then used to estimate the percentage of resistance to PCI-24781. For example in the trititated thymidine assay, sensitive tumor cells affected by the drug divided less and therefore incorporated less thymidine, whereas resistant tumor cells continued to grow and divide and therefore incorporated more thymidine into their DNA.
Primary colorectal cancer (CRC) samples were obtained from patient biopsies (Table 2). Viable tumor cells were plated and cultured in soft agar as described in Kern et al. (1990), J. Natl. Cancer Inst., 82:582-588, and were treated with a range of PCI-24781 concentrations (0.01-2 μM). Tritiated thymidine was added to the culture after 3 days of exposure to the drug, and the amount of radioactivity incorporated into the cells after a further 2 days was quantified. The percentage of cell growth inhibition (% GI) was calculated by comparing the treated cells to the control cells, and from these growth profiles the tumors were classified as either sensitive or resistant based on deviation from the median profile.
Subsequently, primary human tumor samples were obtained and viable tumor cells were plated in soft agar and treated with the HDAC inhibitor PCI-24781. Tritiated thymidine was added after 3 days, and 2 days later the radioactivity incorporated into the DNA was quantified. The tumors were then classified as either resistant (EDR: Extreme Drug Resistance), sensitive (LDR) or intermediate (IDR) based on deviation from the median profile (Oncotech, Inc. Tustin, Calif.).

[5] = system: HDACi resistance biomarker genes in colorectal tumor cells; experiment: Microarray gene expression profiling of colorectal tumor cells treated with PCI-24781 or untreated; type: cell-based, human; details: PCI-24781 2 μM vs untreated
Procedure: After determining tumor sensitivity to PCI-24781, gene expression profiles were determined for resistant and sensitive tumors that were treated with PCI-24781 (2 μM) or untreated. Total RNA was isolated using Qiagen procedures (Qiagen, Inc., Valencia, Calif.) and fluorescent probes were prepared and hybridized to Codelink Human Whole Genome oligonucleotide microarrays containing ˜55,000 unique probes (GE Healthcare Bio-Sciences Corp., Piscataway, N.J.) according to the manufacturer's instructions. The microarrays were scanned in a GenePix 4000B scanner (Molecular Devices Corporation, Sunnyvale Calif.). The images were processed with Codelink software and the exported data was analyzed as follows.
The median-normalized microarray data were imported into Genespring software (Agilent), and principal component analysis (PCA) and hierarchical clustering analysis were performed. We looked for consistent results from multiple analysis methods to provide additional confidence in our results. For multiple hypothesis correction, we used the q-values approach for false discovery rates (FDR) as described in Storey et al. (2003), Proc. Nat. Acad. Sci. USA, 100:9440-9445. As a second analytical approach we adopted the Bayesian ANOVA approach described in Ishwaran et al. (2003), J. Amer. Stat. Assoc., 98:438-455. […]

[6] = system: advanced metastatic colon tumor cells; experiment: Ex vivo growth inhibition of advanced metastatic colon tumor cells; type: cell-based, human; details: in a number of cases, FIG. 11B
[7] = system: primary colon tumor cells from newly diagnosed, naive patients; experiment: Ex vivo growth inhibition of primary colon tumor cells from newly diagnosed, naive patients; type: cell-based, human; details: ex vivo cultured cells from twelve patients, FIG. 11A
[8] = system: Multiple Myeloma primary tumor cells; experiment: Soft agar tritiated thymidine assay of primary human tumor samples, EDR/IDR/LDR classification: multiple myeloma; type: cell-based
Procedure: as §1

[9] = system: Ovarian primary tumor cells; experiment: Soft agar tritiated thymidine assay of primary human tumor samples, EDR/IDR/LDR classification: ovarian; type: cell-based
Procedure: as §1

## CN(C)Cc1c(C(=O)NCCOc2ccc(C(=O)NO)cc2)oc2ccccc12 [PCI-24781]
[1]
  tissue with highest induction of mRNA of five HDACi-responsive biomarker genes: Ovary showed the highest level of induction, followed by uterus
AML primary tumor cells
  % Resistance: 10%
AML primary tumor cells; of 10 tumors
  Intermediate IDR (number of tumors): 4
  Resistant EDR (number of tumors): 1
  Sensitive LDR (number of tumors): 5
[2]
  % Resistance: 29%
[2]; of 7 tumors
  Intermediate IDR (number of tumors): 1
  Resistant EDR (number of tumors): 2
  Sensitive LDR (number of tumors): 4
[3]
  tubulin acetylation levels in PBMC: increases
[4]
  % Resistance: 38%
[4]; of 24 tumors
  Intermediate IDR (number of tumors): 3
  Resistant EDR (number of tumors): 9
  Sensitive LDR (number of tumors): 12
[5]
  effect of treatment on expression of the identified resistance biomarker genes: not altered
[6]
  sensitivity to growth inhibition: resistant
[7]
  sensitivity to growth inhibition: all sensitive
[8]
  % Resistance: 33%
[8]; of 6 tumors
  Intermediate IDR (number of tumors): 0
  Resistant EDR (number of tumors): 2
  Sensitive LDR (number of tumors): 4
[9]
  % Resistance: 25%
[9]; of 12 tumors
  Intermediate IDR (number of tumors): 4
  Resistant EDR (number of tumors): 3
  Sensitive LDR (number of tumors): 5
